Measurements taken from patent US8399683B2 (TetraLogic Pharmaceuticals, priority 2008, dated 2013).

Tests used:
XIAP BIR-3 = biological target: T1, XIAP BIR-3 (Homo sapiens, UniProt P98170); experiment: Fluorescence polarization binding affinity to XIAP BIR-3 (competition with AbuRPF-K(5-Fam)-NH2); settings: 5 nM labeled peptide, 40 nM BIR3, 15 min at RT, pH 7.5; reported as ranges
T1 construct: 40 nM of the respective IAP BIR3
How it was run: (§1)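 Test peptides at varied concentrations competed with 5 nM fluorescent Smac-mimetic tracer for 40 nM BIR3 domain, 15 min at RT in 0.1M potassium phosphate pH 7.5 with […] bovine g-globulin. Polarization (mP) read at 485/520 nm; KD reported in bins (A=<0.1 μM, B=0.1–1 μM, C>1–10 μM, D=>10 μM).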

SK-OV-3 cells = experiment: Growth inhibition of ovarian cancer cell line SK-OV-3 (MTT assay, cell survival); assay type: cell-based; settings: Homo sapiens, drug concentration that results in 50% cell survival, 72 hrs incubation, reported as ranges
How it was run: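 After overnight seeding in McCoy's medium with 10% FBS, SK-OV-3 cells were exposed to compound at 0.003-10 μM for 72 hrs at 37° C. MTT was then added for 3 h, with DMSO solubilization and OD read at 535 nm. CC50 is the concentration giving 50% survival relative to untreated control, reported as ranges.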

cIAP-1 BIR-3 = cIAP-1 BIR-3 (Homo sapiens, UniProt Q13490); experiment: Fluorescence polarization binding affinity to cIAP-1 BIR-3 (competition with AbuRPF-K(5-Fam)-NH2); settings: 5 nM labeled peptide, 40 nM BIR3, 15 min at RT, pH 7.5; reported as ranges; read-out: KD (c-IAP-1 BIR3)
How it was run: as §1

Chain of cIAP-1 BIR-3 (Q13490 266-352 limits assumed): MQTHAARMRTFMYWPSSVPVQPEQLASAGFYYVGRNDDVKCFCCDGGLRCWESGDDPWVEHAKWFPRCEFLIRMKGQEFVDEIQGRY
T1 sequence (P98170 241-356 limits assumed): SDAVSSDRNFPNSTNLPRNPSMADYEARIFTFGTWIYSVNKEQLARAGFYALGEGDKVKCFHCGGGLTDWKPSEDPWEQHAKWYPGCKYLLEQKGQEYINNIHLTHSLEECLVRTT

Kd (XIAP BIR-3) [nM]	Kd (cIAP-1 BIR-3) [nM]	SMILES	CC50 (SK-OV-3 cells) [nM]
< 100	< 100	CN[C@@H](C)C(=O)N[C@H](C(=O)N1CC[C@@H]2[C@H]1[C@@H](c1c[nH]c3cc(F)ccc13)CN2C(=O)C1CC1)C1CCCCC1 [Example 40, N-{1-Cyclohexyl-2-[4-cyclopropanecarbonyl-6-(6-fluoro-1H-indol-3-yl)-hexahydro-pyrrolo[3,2-b]pyrrol-1-yl]-2-oxo-ethyl}-2-methylamino-propionamide]	< 100
< 100	< 100	CN[C@@H](C)C(=O)N[C@H](C(=O)N1CC[C@@H]2[C@H]1[C@@H](c1c[nH]c3cc(F)ccc13)CN2C(=O)Cc1ccccc1)C1CCCCC1 [Example 39, N-{1-Cyclohexyl-2-[6-(6-fluoro-1H-indol-3-yl)-4-phenylacetyl-hexahydro-pyrrolo[3,2-b]pyrrol-1-yl]-2-oxo-ethyl}-2-methylamino-propionamide]	< 100
< 100	< 100	CN[C@@H](C)C(=O)N[C@H](C(=O)N1CC[C@@H]2[C@H]1[C@@H](c1c[nH]c3cc(F)ccc13)CN2Cc1cccnc1)C1CCCCC1 [Example 25, N-{1-Cyclohexyl-2-[6-(6-fluoro-1H-indol-3-yl)-4-pyridin-3-ylmethyl-hexahydro-pyrrolo[3,2-b]pyrrol-1-yl]-2-oxo-ethyl}-2-methylamino-propionamide]	100 to 1000
1000 to 10000	100 to 1000	CN[C@@H](C)C(=O)N[C@H](C(=O)N1CC[C@@H]2[C@H]1[C@H](c1c[nH]c3cc(F)ccc13)CN2C1CCCC1)C(C)C [Example 7, N-{1-[4-Cyclopentyl-6-(6-fluoro-1H-indol-3-yl)-hexahydro-pyrrolo[3,2-b]pyrrole-1-carbonyl]-2-methyl-propyl}-2-methylamino-propionamide]	1000 to 10000
100 to 1000	< 100	CN[C@@H](C)C(=O)N[C@H](C(=O)N1CC[C@@H]2[C@H]1[C@@H](c1c[nH]c3cc(F)ccc13)CN2C1CCCC1)C(C)C [Example 8]	100 to 1000
< 100	< 100	CNC(C)C(=O)NC(C(=O)N1CC(c2c[nH]c3cc(F)ccc23)C2C1CCN2C(=O)C(NC(=O)C(C)NC)C1CCCCC1)C1CCCCC1 (stereo not drawn) [Example 111, N-{1-Cyclohexyl-2-[4-[2-cyclohexyl-2-(2-methylamino-propionylamino)-acetyl]-6-(6-fluoro-1H-indol-3-yl)-hexahydro-pyrrolo[3,2-b]pyrrol-1-yl]-2-oxo-ethyl}-2-methylamino-propionamide]	< 100
> 10000	100 to 1000	CN[C@@H](C)C(=O)N[C@H](C(=O)N1C[C@@H](O)[C@H]2NC[C@@H](c3c[nH]c4cc(F)ccc34)[C@H]21)C1CCCCC1 [Example 86, N-{1-Cyclohexyl-2-[6R-(6-fluoro-1H-indol-3-yl)-3-hydroxy-hexahydro-pyrrolo[3,2-b]pyrrol-1-yl]-2-oxo-ethyl}-2-methylamino-propionamide]	> 10000
< 100	< 100	CN[C@@H](C)C(=O)N[C@H](C(=O)N1CC[C@@H]2[C@H]1[C@@H](c1c[nH]c3cc(F)ccc13)CN2C(=O)C(F)(F)F)C1CCCCC1 [Example 37, N-{1-Cyclohexyl-2-[6-(6-fluoro-1H-indol-3-yl)-4-(2,2,2-trifluoro-acetyl)-hexahydro-pyrrolo[3,2-b]pyrrol-1-yl]-2-oxo-ethyl}-2-methylamino-propionamide]	< 100
< 100	< 100	CC(=O)N1C[C@H](c2c[nH]c3cc(F)ccc23)[C@@H]2[C@H]1CCN2C(=O)[C@@H](NC(=O)[C@H](C)N)C1CCCCC1 [Example 94]	1000 to 10000

The remaining lines, values behind:

SMILES	Kd (XIAP BIR-3) [nM]	Kd (cIAP-1 BIR-3) [nM]	CC50 (SK-OV-3 cells) [nM]
CN[C@@H](C)C(=O)N[C@H](C(=O)N1CC[C@@H]2[C@H]1[C@@H](c1c[nH]c3cc(F)ccc13)CN2S(C)(=O)=O)[C@@H](C)OC [Example 58, N-{1-[6-(6-Fluoro-1H-indol-3-yl)-4-methanesulfonyl-hexahydro-pyrrolo[3,2-b]pyrrole-1-carbonyl]-2-methoxy-propyl}-2-methylamino-propionamide]	< 100	< 100	< 100
CC[C@H](NC(=O)[C@H](C)NC)C(=O)N1CC[C@@H]2[C@H]1[C@H](c1c[nH]c3cc(F)ccc13)CN2S(C)(=O)=O [Example 45, N-{1-[6-(6-Fluoro-1H-indol-3-yl)-4-methanesulfonyl-hexahydro-pyrrolo[3,2-b]pyrrole-1-carbonyl]-propyl}-2-methylamino-propionamide]	> 10000	1000 to 10000	> 10000
CN[C@@H](C)C(=O)N[C@H](C(=O)N1CC[C@@H]2[C@H]1[C@@H](c1c[nH]c3cc(F)ccc13)CN2S(C)(=O)=O)C(C)C [Example 48, N-{1-[6-(6-Fluoro-1H-indol-3-yl)-4-methanesulfonyl-hexahydro-pyrrolo[3,2-b]pyrrole-1-carbonyl]-2-methyl-propyl}-2-methylamino-propionamide]	< 100	< 100	< 100
CN[C@@H](C)C(=O)N[C@@H](CO)C(=O)N1CC[C@H]2NC[C@H](c3c[nH]c4cc(F)ccc34)[C@H]21 [Example 33, N-{2-[6-(6-Fluoro-1H-indol-3-yl)-hexahydro-pyrrolo[3,2-b]pyrrol-1-yl]-1-hydroxymethyl-2-oxo-ethyl}-2-methylamino-propionamide]	< 100	< 100	1000 to 10000
CC[C@H](NC(=O)[C@H](C)NC)C(=O)N1CC[C@@H]2[C@H]1[C@@H](c1c[nH]c3ccc(F)cc13)CN2C(C)=O [Example 67, N-{1-[4-Acetyl-6-(5-fluoro-1H-indol-3-yl)-hexahydro-pyrrolo[3,2-b]pyrrole-1-carbonyl]-propyl}-2-methylamino-propionamide]	< 100	< 100	100 to 1000
CN[C@@H](C)C(=O)N[C@H](C(=O)N1CC[C@@H]2[C@H]1[C@@H](c1c[nH]c3cc(F)ccc13)CN2c1ncccn1)C(C)C [Example 77, N-{1-[6-(6-Fluoro-1H-indol-3-yl)-4-pyrimidin-2-yl-hexahydro-pyrrolo[3,2-b]pyrrole-1-carbonyl]-2-methyl-propyl}-2-methylamino-propionamide]	< 100	< 100	< 100
CN[C@@H](C)C(=O)N[C@H](C(=O)N1CC[C@@H]2[C@H]1CCN2C(=O)OCc1ccccc1)C1CCCCC1 [Example 108, 4-[2-Cyclohexyl-2-(2-methylamino-propionylamino)-acetyl]hexahydro-pyrrolo[3,2-b]pyrrole-1-carboxylic acid benzyl ester]	1000 to 10000	< 100	100 to 1000
CN[C@@H](C)C(=O)N[C@H](C(=O)N1CC[C@H]2NC[C@H](c3c[nH]c4ccccc34)[C@H]21)[C@@H](C)OC [Example 90]	< 100	< 100	1000 to 10000
CN[C@@H](C)C(=O)N[C@H](C(=O)N1CC[C@@H]2[C@H]1[C@@H](c1c[nH]c3cc(F)ccc13)CN2c1ncccn1)[C@@H](C)O [Example 82, N-{1-[6-(6-Fluoro-1H-indol-3-yl)-4-pyrimidin-2-yl-hexahydro-pyrrolo[3,2-b]pyrrole-1-carbonyl]-2-hydroxy-propyl}-2-methylamino-propionamide]	< 100	< 100	< 100
CO[C@H](C)[C@H](NC(=O)[C@H](C)N)C(=O)N1CC[C@H]2NC[C@H](c3cn(Cc4ccccc4)c4cc(F)ccc34)[C@H]21 [Example 93]	< 100	< 100	1000 to 10000
CN[C@@H](C)C(=O)N[C@@H](COC)C(=O)N1CC[C@@H]2[C@H]1[C@@H](c1c[nH]c3ccc(F)cc13)CN2C(C)=O [Example 72, N-{2-[4-Acetyl-6-(5-fluoro-1H-indol-3-yl)-hexahydro-pyrrolo[3,2-b]pyrrol-1-yl]-1-methoxymethyl-2-oxo-ethyl}-2-methylamino-propionamide]	< 100	< 100	1000 to 10000
CN[C@@H](C)C(=O)N[C@H](C(=O)N1CC[C@@H]2[C@H]1[C@@H](c1c[nH]c3cc(F)ccc13)CN2Cc1ccccc1)C(C)(C)C [Example 104]	< 100	< 100	< 100
CN[C@@H](C)C(=O)N[C@H](C(=O)N1CC[C@@H]2[C@H]1[C@@H](c1c[nH]c3cc(F)ccc13)CN2S(C)(=O)=O)C(C)(C)C [Example 50, N-{1-[6-(6-Fluoro-1H-indol-3-yl)-4-methanesulfonyl-hexahydro-pyrrolo[3,2-b]pyrrole-1-carbonyl]-2,2-dimethyl-propyl}-2-methylamino-propionamide]	< 100	< 100	< 100
CN[C@@H](C)C(=O)N[C@H](C(=O)N1CC[C@H]2NCC[C@H]21)C1CCCCC1 [Example 109, N-[1-Cyclohexyl-2-(hexahydro-pyrrolo[3,2-b]pyrrol-1-yl)-2-oxo-ethyl]-2-methylamino-propionamide]	1000 to 10000	100 to 1000	> 10000
CN[C@@H](C)C(=O)N[C@H](C(=O)N1CC[C@@H]2[C@H]1[C@@H](c1c[nH]c3cc(F)ccc13)CN2Cc1ccccc1)[C@@H](C)OC [Example 100]	< 100	< 100	< 100
